Tested on: d-U937 cells
Test: Cell viability: MTT assay
Format: cell-based, human
Conditions: 1 μg/mL
Description: Differentiated U937 cells were pre-incubated with each test compound (final concentration 1 μg/mL or 10 μg/mL in 200 μL media indicated below) under two protocols: the first for 4 hr in 5% FCS RPMI1640 media and the second in 10% FCS RPMI1640 media for 24 h. The supernatant was replaced with new media (200 μL) and MTT stock solution (10 μL, 5 mg/mL) was added to each well. After incubation for 1 hr the media were removed, DMSO (200 μL) was added to each well and the plates were shaken lightly for 1 hr prior to reading the absorbance at 550 nm. The percentage loss of cell viability was calculated for each well relative to vehicle (0.5% DMSO) treatment. Consequently an apparent increase in cell viability for drug treatment relative to vehicle is tabulated as a negative percentage.

Compound	MTT Assay Cell viability at time point in d-U937 Cells 4 h	MTT Assay Cell viability at time point in d-U937 Cells 24 h
CC(C)(C)c1cc(NC(=O)Nc2ccc(Oc3ccnc(Nc4ccccc4)n3)c3ccccc23)n(-c2ccc(O)cc2)n1 [Example 3, 1-(3-(tert-butyl)-1-(4-hydroxyphenyl)-1H-pyrazol-5-yl)-3-(4-((2-(phenylamino)pyrimidin-4-yl)oxy)naphthalen-1-yl)urea]	−ve (−ve and +ve indicate the value is below and above respectively, the no significant effect threshold defined as 30% inhibition at 1 μg/mL at the time point indicated)	−ve (−ve and +ve indicate the value is below and above respectively, the no significant effect threshold defined as 30% inhibition at 1 μg/mL at the time point indicated)
Cc1ccc(-n2nc(C(C)(C)C)cc2NC(=O)Nc2ccc(Oc3ccnc(Nc4ccccc4F)n3)c3ccccc23)cc1 [Example 4, 1-(3-(tert-butyl)-1-(p-tolyl)-1H-pyrazol-5-yl)-3-(4-((2-((2-fluorophenyl)amino)pyrimidin-4-yl)oxy)naphthalen-1-yl)urea]	−ve (−ve and +ve indicate the value is below and above respectively, the no significant effect threshold defined as 30% inhibition at 1 μg/mL at the time point indicated)	−ve (−ve and +ve indicate the value is below and above respectively, the no significant effect threshold defined as 30% inhibition at 1 μg/mL at the time point indicated)
COc1ccccc1Nc1nccc(Oc2ccc(NC(=O)Nc3cc(C(C)(C)C)nn3-c3ccc(C)cc3)c3ccccc23)n1 [Example 5, 1-(3-(tert-butyl)-1-(p-tolyl)-1H-pyrazol-5-yl)-3-(4-((2-((2-methoxyphenyl)amino)pyrimidin-4-yl)oxy)naphthalen-1-yl)urea]	−ve (−ve and +ve indicate the value is below and above respectively, the no significant effect threshold defined as 30% inhibition at 1 μg/mL at the time point indicated)	−ve (−ve and +ve indicate the value is below and above respectively, the no significant effect threshold defined as 30% inhibition at 1 μg/mL at the time point indicated)
Cc1ccc(-n2nc(C(C)(C)C)cc2NC(=O)Nc2ccc(Oc3ccnc(Nc4ccccc4Cl)n3)c3ccccc23)cc1 [Example 6, 1-(3-(tert-butyl)-1-(p-tolyl)-1H-pyrazol-5-yl)-3-(4-((2-((2-chlorophenyl)amino)pyrimidin-4-yl)oxy)naphthalen-1-yl)urea]	−ve (−ve and +ve indicate the value is below and above respectively, the no significant effect threshold defined as 30% inhibition at 1 μg/mL at the time point indicated)	−ve (−ve and +ve indicate the value is below and above respectively, the no significant effect threshold defined as 30% inhibition at 1 μg/mL at the time point indicated)
COc1ccc(-n2nc(C(C)(C)C)cc2NC(=O)Nc2ccc(Oc3ccnc(Nc4ccccc4)n3)c3ccccc23)cc1 [Example 7, 1-(3-(tert-butyl)-1-(4-methoxyphenyl)-1H-pyrazol-5-yl)-3-(4-((2-(phenylamino)pyrimidin-4-yl)oxy)naphthalen-1-yl)urea]	−ve (−ve and +ve indicate the value is below and above respectively, the no significant effect threshold defined as 30% inhibition at 1 μg/mL at the time point indicated)	−ve (−ve and +ve indicate the value is below and above respectively, the no significant effect threshold defined as 30% inhibition at 1 μg/mL at the time point indicated)
COc1ccc(Nc2nccc(Oc3ccc(NC(=O)Nc4cc(C(C)(C)C)nn4-c4ccc(C)cc4)c4ccccc34)n2)c(OC)c1 [Example 8, 1-(3-(tert-butyl)-1-(p-tolyl)-1H-pyrazol-5-yl)-3-(4-((2-((2,4-dimethoxyphenyl)amino)pyrimidin-4-yl)oxy)naphthalen-1-yl)urea]	−ve (−ve and +ve indicate the value is below and above respectively, the no significant effect threshold defined as 30% inhibition at 1 μg/mL at the time point indicated)	−ve (−ve and +ve indicate the value is below and above respectively, the no significant effect threshold defined as 30% inhibition at 1 μg/mL at the time point indicated)
Cc1ccc(-n2nc(C(C)(C)C)cc2NC(=O)Nc2ccc(Oc3ccnc(Nc4ccc(O)cc4)n3)c3ccccc23)cc1 [Example 9, 1-(3-(tert-butyl)-1-(p-tolyl)-1H-pyrazol-5-yl)-3-(4-((2-((4-hydroxyphenyl)amino)pyrimidin-4-yl)oxy)naphthalen-1-yl)urea]	−ve (−ve and +ve indicate the value is below and above respectively, the no significant effect threshold defined as 30% inhibition at 1 μg/mL at the time point indicated)	−ve (−ve and +ve indicate the value is below and above respectively, the no significant effect threshold defined as 30% inhibition at 1 μg/mL at the time point indicated)
Cc1ccc(-n2nc(C(C)(C)C)cc2NC(=O)Nc2ccc(Oc3ccnc(Nc4cc(C)ccc4C)n3)c3ccccc23)cc1 [Example 10, 1-(3-(tert-butyl)-1-(p-tolyl)-1H-pyrazol-5-yl)-3-(4-((2-((2,5-dimethylphenyl)amino)pyrimidin-4-yl)oxy)naphthalen-1-yl)urea]	−ve (−ve and +ve indicate the value is below and above respectively, the no significant effect threshold defined as 30% inhibition at 1 μg/mL at the time point indicated)	−ve (−ve and +ve indicate the value is below and above respectively, the no significant effect threshold defined as 30% inhibition at 1 μg/mL at the time point indicated)
Cc1ccc(Nc2nccc(Oc3ccc(NC(=O)Nc4cc(C(C)(C)C)nn4-c4ccc(C)cc4)c4ccccc34)n2)cc1 [Example 11, 1-(3-(tert-butyl)-1-(p-tolyl)-1H-pyrazol-5-yl)-3-(4-((2-(p-tolylamino)pyrimidin-4-yl)oxy)naphthalen-1-yl)urea]	−ve (−ve and +ve indicate the value is below and above respectively, the no significant effect threshold defined as 30% inhibition at 1 μg/mL at the time point indicated)	−ve (−ve and +ve indicate the value is below and above respectively, the no significant effect threshold defined as 30% inhibition at 1 μg/mL at the time point indicated)
Cc1ccc(-n2nc(C(C)(C)C)cc2NC(=O)Nc2ccc(Oc3ccnc(Nc4cccc(C)c4)n3)c3ccccc23)cc1 [Example 12, 1-(3-(tert-butyl)-1-(p-tolyl)-1H-pyrazol-5-yl)-3-(4-((2-(m-tolylamino)pyrimidin-4-yl)oxy)naphthalen-1-yl)urea]	−ve (−ve and +ve indicate the value is below and above respectively, the no significant effect threshold defined as 30% inhibition at 1 μg/mL at the time point indicated)	−ve (−ve and +ve indicate the value is below and above respectively, the no significant effect threshold defined as 30% inhibition at 1 μg/mL at the time point indicated)

Source: US9993478B2, “1-pyrazolyl-3-(4-((2-anilinopyrimidin-4-yl) oxy) napththalen-1-yl) ureas as P38 MAP knase inhibitors” (Respivert Ltd., priority 2011, dated 2018)
